In US10159738B2, “Organic-inorganic hybrid solid having a modified outer surface” (CENTRE NATIONAL DE LA RECHERCHE SCIENTIFIQUE-CNRS, priority 2012, dated 2018):

Key:
[1] = COOH groups; cited from earlier work
J774 cell line = test: Penetration in the J774 cell line (CLSM, ATP-BODIPY label); type: cell-based, murine; conditions: 50 μg/ml, 15 min to 24 h
Method: For this analysis the MIL-100s were labeled with a fluorophore: adenosine 5′-triphosphate BODIPY-FL (ATP-BODIPY, adenosine 5′-triphosphate, BODIPY® FL, Invitrogen). 1.25 mg of MIL-100 was incubated with 500 μL of an aqueous solution of ATP-BODIPY 10 nmol/ml, for 1 h, with stirring in the dark at room temperature. At the end of incubation, the nanoparticles were recovered by centrifugation at 5600×g for 10 min, and the supernatant was analyzed by spectrofluorimetry in order to quantify the level of absorption of the fluorophore. The nanoparticles were then incubated in 500 μl of water (unmodified sample) or of an aqueous solution of βCDP 1.25 mg/ml, for 1 h with stirring, at room temperature, in the dark. At the end of incubation, the nanoparticles were recovered by centrifugation at 5600×g for 10 min and resuspended in RMPI 10% FBS (fetal bovine serum) to a final concentration of 50 μg/ml. The cells of the J774 line had been cultured beforehand in 24-well plates (5×10^4 cells per well) on a sterile glass cover slip.
After 24 h of incubation in a humidified incubator at 37° C., the culture medium was replaced with 1 ml of the solutions of nanoparticles loaded with ATP-BODIPY (unmodified or surface-modified), or with free ATP-BODIPY. After various incubation times (15 min, 1 h, 4 h, 24 h), the culture medium was aspirated and the cells were fixed.

Compound	pKa [1]	internalization in the cells (J774 cell line)
O=C(O)c1cc(C(=O)O)cc(C(=O)O)c1 [trimesic acid, 1,3,5-benzenetricarboxylic acid]	3.4	
adenosine 5′-triphosphate, BODIPY® FL [ATP-BODIPY]		no fluorescence was observed in the cells
